Results reported in patent US20250276008A1, “USE OF LITHIUM-CONTAINING COMPOUNDS IN TREATMENT OF TUMORS” (Institute of Basic Medical Sciences Chinese Academy of …, priority 2023, published 2025).

Assays:
CD8^+ T cells [1] = assay: Cytosolic Ca2+ / lysosomal Ca2+ release in CD8+ T cells; format: cell-based, mouse; conditions: for increase in cytosolic Ca^2+ concentrations in CD8^+ T cells induced by LC: blocking calcium release from endoplasmic reticulum or mitochondria; for Ca^2+ release in lactic acid-treated CD8^+ T cells: increasing lysosomal pH value
Source text: Next, we investigated the molecular mechanism by which LC activated TFEB in CD8^+ T cells. It has been reported (Nat Cell Biol. 2015 March;17(3):288-99) that in addition to being able to degrade exogenous or endogenous biomacromolecules, lysosomes, like endoplasmic reticulum and mitochondria, are also storage sites for Ca^2+ and can initiate the transduction of calcium-related downstream signals.
(§1) In order to better track the flow of H^+, ^2D (deuterium)-acetic acid (DAC) or ^2D-sulfuric acid (D2SO4) was added to the culture medium of CD8^+ T cells. […] The K-loop of V-ATPase is located in the hydrophobic lipid bilayer and is essential for the pumping of cytosolic H^+ into the lysosomal lumen. Li^+ has been reported to bind to the K-loop of V-ATPase in Enterococcus hirde and induce deprotonation of the Glul39 residue (J. Am. Chem. Soc. 2011.133. 2860-2863).

MCT1 = assay: Localization of MCT1 to mitochondria (Western blot of isolated T cell mitochondria); format: cell-based, mouse; conditions: for expression / localization of MCT1 in mitochondria: Western blot of isolated T cell mitochondria
Source text: The inventor further explored the molecular mechanism by which LC led to the shunting of lactic acid to mitochondria. Entry of lactic acid into mitochondria requires the localization of MCT1 to the inner mitochondrial membrane IMM (Redox Biol. 2020 August;35:101454). […] MCT1 is generally recognized as a secreted protein with an endoplasmic reticulum-targeting sequence that enters the endoplasmic reticulum and localizes to the plasma membrane. We hypothesized that LC could induce MCT1 variants with mitochondrial targeting sequences (MTSs). However, no MCT1 variant was found in LC-treated T cells by sequencing analysis, and only one transcript of MCT1 was found after alignment analysis on NCBI. A MTS was found at the N-terminus of MCT-1protein by protein sequence analysis, which was present downstream of the endoplasmic reticulum targeting sequence, forming a double-peak chimeric sequence. This double-peak sequence may direct MCT-1 to target the endoplasmic reticulum or mitochondria, and may be regulated by serine/threonine phosphorylation of PKA or PKC (Avadhani, N. G. 2011. FEBS J 278, 4218-4229).

lysosomal V-ATPase = assay: Lysosomal pH, Atp6v0c, H+ (deuterium) flow and Li+ accumulation in CD8+ T cells; format: cell-based, mouse
Procedure: as §1

CD8^+ T cells [2] = assay: Exogenous lactic acid on CD3/CD28-activated CD8+ T cells (flow cytometry, qPCR, ELISA, CTV); format: cell-based, C57BL/6J mouse; conditions: exogenous lactic acid at different concentrations, dose-dependent
Source text: In order to further explore the effect of lactic acid on CD8^+ T cells, we used C57BL/6J mouse spleen-derived CD8^+ T cells to be activated by CD3/CD28 magnetic beads and stimulated by exogenous lactic acid at different concentrations.

CD8^+ T cells [3] = assay: Entry and subcellular distribution of lactate and hydrogen ions in CD8+ T cells (lysosensor, LC-MS/MS); format: cell-based, mouse
Procedure: CD8^+ T cells were treated with exogenous hydrochloric acid (HCl) or sodium lactate (NaLa) as controls, and the entry of lactate and hydrogen ions into the cells was detected.
When exogenous lactic acid enters the cell, excess hydrogen ions are further transported to acidic organelles, such as lysosomes, in order to maintain the stability of the cytoplasmic pH values.

CD8^+ T cells [4] = assay: Lactyl-CoA (LC-MS/MS) and histone lactylation (Western blot, anti-pan-Kla) in CD8+ T cells; format: cell-based, mouse; conditions: after treating CD8+ T cells with exogenous lactic acid
Source text: We further investigated the effect of lactic acid distributed in the nucleus on the function of CD8^+ T cells. In 2019, Zhao […] team discovered a new type of histone epigenetic modification, lactylation modification (Kla), which can regulate the phenotype and function of macrophages (Nature. 2019 October: 574 (7779): 575-580). On this basis, we hypothesized that lactic acid entering the nucleus would lead to lactylation modification of histones, thereby regulating the function of CD8^+ T cells.

V-ATPase = assay: V0C expression, V-ATPase activity and lysosomal pH in lactic acid-treated CD8+ T cells; format: cell-based, mouse
Procedure: In order to further elucidate the mechanism by which histone lactylation modification regulates T cell function, the downstream target genes regulated by histone lactylation modification were explored by using ChIP-Seq experiments, and the enrichment scores of genes corresponding to histone lactylation sites were calculated. […] ATP6V0C gene encodes the V0 subunit C protein in V-ATPase that plays a key role in pumping H^+, which is responsible for pumping cytosolic H^+ into the lysosomal lumen and thus maintaining the low pH value of lysosomes. […] Therefore, exogenous lactic acid results in lactylation of histones and thus up-regulating ATP6V0C expression and activity, thereby shunting cytosolic H^+ into lysosomes in response to cytosolic acid stress, but lysosomal acidification may inhibit the activity of CD8^+ T cells.

## O=C1CSC(c2ccccc2Cl)c2cc(Cl)ccc2N1 (stereo not drawn) [CGP37157]
CD8^+ T cells [1]
  increase in cytosolic Ca^2+ concentrations in CD8^+ T cells induced by LC: did not affect

## CCCCCCCCCCCCCC(=O)O[C@@H]1[C@@H](C)[C@@]2(O)[C@@H](C=C(CO)C[C@]3(O)C(=O)C(C)=C[C@@H]23)[C@@H]2C(C)(C)[C@]12OC(C)=O [PMA]
MCT1
  expression / localization of MCT1 in mitochondria: significantly increased

## CN1CCN(c2nc(C3=C(c4c[nH]c5ccccc45)C(=O)NC3=O)c3ccccc3n2)CC1 [Sotrastaurin]
MCT1; kinase inhibitors added, results not shown
  localization of MCT1 to mitochondria induced by LC: almost completely blocked

## CO/C1=C\C(C)=C\[C@@H](C)[C@@H](O)[C@@H](C)C/C(C)=C/C=C/[C@H](OC)[C@@H]([C@@H](C)[C@@H](O)[C@H](C)[C@@]2(O)C[C@@H](O)[C@H](C)[C@@H](C(C)C)O2)OC1=O [bafilomycin A1]
CD8^+ T cells [1]; LC-treated CD8+ T cells with bafilomycin A1
  Ca^2+ release: reduced
CD8^+ T cells [1]
  Ca^2+ release in lactic acid-treated CD8^+ T cells: promote
Lysosomal V-ATPase; LC-treated CD8+ T cells
  entry of Li^+ into lysosomes: blocked

## CCN(CC)CCCC(C)Nc1ccnc2cc(Cl)ccc12 (stereo not drawn) [chloroquine]
CD8^+ T cells [1]
  Ca^2+ release in lactic acid-treated CD8^+ T cells: promote

## CC(O)C(=O)O (stereo not drawn) [lactic acid]
CD8^+ T cells [2]; CD3/CD28 magnetic beads
  activation of CD8^+ T cells (CD25 expression; gene and protein expression of IL-2, IFN-γ, TNF-α): significantly inhibited
CD8^+ T cells [2]
  apoptosis of CD8^+ T cells: significantly promoted
  proliferation of CD8^+ T cells (CTV proliferation assay): significantly inhibited
CD8^+ T cells [3]
  lysosome acidification (lysosensor staining): rapidly acidify lysosomes
CD8^+ T cells [3]; HCl or sodium lactate as controls
  entry of lactate and hydrogen ions into the cells: simultaneously transported into the cells
CD8^+ T cells [4]
  content of lactyl-CoA (LC-MS/MS): significantly increased
  level of histone lactylation (Western blotting, anti-pan-Kla antibody): significantly increased
V-ATPase; CD8+ T cells
  activity of V-ATPase: significantly up-regulated
  protein expression of V0C: significantly up-regulated
V-ATPase; exogenous lactic acid, decreasing from 5.4
  lysosomal pH value: 4.4
MCT1
  expression / localization of MCT1 in mitochondria: significantly reduced
Lysosomal V-ATPase
  expression of lysosome-related gene Atp6v0c: significantly up-regulated
  lactylation of the Atp6v0c gene (ChIP-seq): high level of lactylation

## Ryanodine
CD8^+ T cells [1]
  increase in cytosolic Ca^2+ concentrations in CD8^+ T cells induced by LC: did not affect
